Results published in US11234970B2, “Parasitic pest control agents comprising pyridone compounds as active ingredients and methods for using the same” (MITSUI CHEMICALS AGRO, INC., priority 2017, dated 2022).

Tested on: heartworm microfillaria
Assay: Heartworm microfillaria mortality test (Test Example 1)
Assay type: in vitro
Settings: final concentration 100 μg/ml in culture broth; after culturing for 7 days; microfillaria collected from infected dogs
Experimental: Compound Nos. 32, 53, 54 and 55 were each dissolved in dimethyl sulfoxide to 10 mg/ml. These dimethyl sulfoxide solutions were diluted 100-fold to a final concentration of 100 μg/ml with the culture broth containing heartworm microfillaria collected from dogs infected with heartworm. The mortality rate of heartworm microfillaria was investigated after culturing for 7 days.
As a result, the mortality rate was 100% in each of the treatment groups.

| Structure (SMILES) | mortality rate of heartworm microfillaria [%] |
| --- | --- |
| CCn1c(-c2c(F)cccc2F)c(-c2cc(OC)ccc2Cl)cc(Br)c1=O [Compound 55] | 100 |
| CCn1c(-c2c(F)cccc2F)c(-c2cc(OC)ccc2Cl)cc(Cl)c1=O [Compound 54, 3-chloro-5-(2-chloro-5-methoxyphenyl)-6-(2,6-difluorophenyl)-1-ethylpyridine-2(1H)-one] | 100 |
| CCn1c(-c2c(F)cccc2F)c(-c2cc(OC)cc(OC)c2Cl)ccc1=O [Compound 32] | 100 |
| CCn1c(-c2c(F)cccc2F)c(-c2cc(OC)ccc2Cl)ccc1=O [Compound 53, 5-(2-chloro-5-methoxyphenyl)-6-(2,6-difluorophenyl)-1-ethylpyridine-2(1H)-one] | 100 |
